Experimental data reported in US20080269298A1, “Benzimidazol-1-YL-thiophene compounds for the treatment of cancer” (priority 2002, published 2008).

Legend:
PLK1 kinase domain = molecular target: T1, PLK1 kinase domain (Homo sapiens, UniProt P53350); experiment: Assay for Inhibition of PLK1 (SPA enzyme activity); type: biochemical; settings: 2 μM ATP, read-out: Ave pIC50 PLK Enzyme Inhibition (converted)
T1 construct: made in house; host or cells: baculovirus-infected T. ni insect cells

[1] = test system: lung (H460) tumor cell line; experiment: Methylene Blue Growth Inhibition Assay, H460; type: cell-based; settings: Homo sapiens, NCI-H460, 72 h; Cell Line H460, 3 days; read-out: MeB IC50
How it was run: (§1)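 Methylene blue dye retained by cells after a 3-day, 37° C compound incubation in DMEM/10% FBS (0.3% DMSO) served as the biomass readout at 620 nm. IC50 values were interpolated by nonlinear regression against vehicle wells.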

[2] = test system: colon (HCT116) tumor cell line; experiment: Methylene Blue Growth Inhibition Assay, HCT116; type: cell-based; settings: Homo sapiens, HCT-116, 72 h; Cell Line HCT116, 3 days; read-out: MeB IC50
How it was run: (§2)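 Growth inhibition is measured as methylene blue-stained biomass (OD 620 nm) after 3 days of compound treatment, relative to vehicle controls. Cells grow in high-glucose DMEM with 10% FBS and 0.3% final DMSO; IC50 comes from nonlinear regression.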

[3] = test system: Normal Human foreskin fibroblasts (HFF); experiment: Methylene Blue Growth Inhibition Assay, HFF; type: cell-based; settings: 72 h, Cell Line HFF, 3 days, read-out: MeB IC50
How it was run: as §1

[4] = test system: breast tumor (MCF7) cell line; experiment: Methylene Blue Growth Inhibition Assay, MCF7; type: cell-based; settings: Homo sapiens, 72 h; Cell Line MCF7, 3 days; read-out: MeB IC50
How it was run: as §2

[5] = test system: prostate (PC3) tumor cell line; experiment: Methylene Blue Growth Inhibition Assay, PC3; type: cell-based; settings: Homo sapiens, 72 h; Cell Line PC3, 3 days; read-out: MeB IC50
How it was run: as §2

[6] = test system: colon (RKO) tumor cell line; experiment: Methylene Blue Growth Inhibition Assay, RKO; type: cell-based; settings: Homo sapiens, 72 h, 3 days, read-out: MeB IC50
How it was run: as §1

A549 = experiment: Methylene Blue Growth Inhibition Assay, A549; type: cell-based; settings: Homo sapiens; Cell Line A549; read-out: MeB IC50

T1 sequence (P53350 21-346): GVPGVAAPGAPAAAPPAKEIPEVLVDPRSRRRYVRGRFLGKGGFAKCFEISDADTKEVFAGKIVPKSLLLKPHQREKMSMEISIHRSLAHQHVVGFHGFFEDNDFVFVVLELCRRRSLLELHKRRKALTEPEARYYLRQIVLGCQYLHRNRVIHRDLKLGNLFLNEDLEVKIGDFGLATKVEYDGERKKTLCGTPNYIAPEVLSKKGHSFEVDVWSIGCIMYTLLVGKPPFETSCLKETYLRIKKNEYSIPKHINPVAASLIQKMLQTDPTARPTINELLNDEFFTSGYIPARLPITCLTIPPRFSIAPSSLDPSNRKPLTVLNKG

NC(=O)c1sc(-n2cnc3ccc(OCC4CCNCC4)cc32)cc1OCc1ccccc1C(F)(F)F [Example 143, 5-{6-[(4-Piperidinylmethyl)oxy]-1H-benzimidazol-1-yl}-3-({[2-(trifluoromethyl)phenyl]-methyl}oxy)-2-thiophenecarboxamide]
IC50 (PLK1 kinase domain): < 100 nM
IC50 [1]: 1000 to 10000 nM
IC50 [2]: < 1000 nM
IC50 [3]: 1000 to 10000 nM
IC50 [4]: < 1000 nM
IC50 [5]: 1000 to 10000 nM
IC50 [6]: < 1000 nM
IC50 (A549): 1000 to 10000 nM
